Data taken from PubChem BioAssay AID624004 (Vanderbilt Specialized Chemistry Center, 2012).

Each compound was assayed against Phospholipase D2 (Homo sapiens) + Phospholipase D2 (Homo sapiens) (UniProt O14939+O14939) (assay: cellular phospholipase D2 inhibitors, IC50 – cell-based, Lib32, assay 2B, dose response (AID 624004)). Conditions: cellular PLD2 activity assay.
Sequence of Phospholipase D2 (Homo sapiens) + Phospholipase D2 (Homo sapiens) (O14939 whole entry, looked up): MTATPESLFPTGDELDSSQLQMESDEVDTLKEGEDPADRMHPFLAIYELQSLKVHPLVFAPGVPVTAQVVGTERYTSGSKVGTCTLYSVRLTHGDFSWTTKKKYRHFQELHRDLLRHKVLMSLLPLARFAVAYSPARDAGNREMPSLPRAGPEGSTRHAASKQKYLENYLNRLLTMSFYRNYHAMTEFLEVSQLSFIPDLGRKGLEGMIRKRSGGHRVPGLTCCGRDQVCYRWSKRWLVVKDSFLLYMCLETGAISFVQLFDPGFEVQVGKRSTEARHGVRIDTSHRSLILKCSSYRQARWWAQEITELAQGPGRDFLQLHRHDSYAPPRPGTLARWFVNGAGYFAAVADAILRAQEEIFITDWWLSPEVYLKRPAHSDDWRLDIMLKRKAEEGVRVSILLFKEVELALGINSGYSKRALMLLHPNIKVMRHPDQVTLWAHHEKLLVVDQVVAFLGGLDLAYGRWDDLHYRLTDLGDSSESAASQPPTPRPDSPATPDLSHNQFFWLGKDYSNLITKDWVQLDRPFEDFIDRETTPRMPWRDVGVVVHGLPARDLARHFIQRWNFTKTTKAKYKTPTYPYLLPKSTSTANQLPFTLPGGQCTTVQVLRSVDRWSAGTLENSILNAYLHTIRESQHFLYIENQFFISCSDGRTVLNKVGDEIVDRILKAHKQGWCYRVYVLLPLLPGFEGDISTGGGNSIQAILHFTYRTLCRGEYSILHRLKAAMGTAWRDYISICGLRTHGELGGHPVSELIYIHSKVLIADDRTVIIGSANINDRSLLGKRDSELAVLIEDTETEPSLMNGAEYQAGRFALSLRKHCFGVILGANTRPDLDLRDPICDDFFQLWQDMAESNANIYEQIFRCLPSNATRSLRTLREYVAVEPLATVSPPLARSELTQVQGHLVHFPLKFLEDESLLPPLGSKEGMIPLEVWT
Sequence of Phospholipase D2 (Homo sapiens) + Phospholipase D2 (Homo sapiens) (O14939 whole entry, looked up): as above
Work on C[C@@H](CN1CCC2(CC1)C(=O)NCN2c1cccc(F)c1)NC(=O)c1ccc(F)cc1 yielded an IC50 of 34 nM.
Compound COc1cc(C(=O)NCCN2CCC3(CC2)C(=O)NCN3c2cccc(F)c2)cc(OC)c1OC has an IC50 of 1430 nM.
C[C@@H](CN1CCC2(CC1)C(=O)NCN2c1cccc(F)c1)NC(=O)c1ccc(Br)cc1 showed an IC50 of 84 nM.
With COc1cc(C(=O)N[C@@H](C)CN2CCC3(CC2)C(=O)NCN3c2cccc(F)c2)cc(OC)c1OC the IC50 was 72 nM.
C[C@@H](CN1CCC2(CC1)C(=O)NCN2c1cccc(F)c1)NC(=O)c1cccc(F)c1 was tested, and the IC50 was 1200 nM.
For C[C@@H](CN1CCC2(CC1)C(=O)NCN2c1cccc(F)c1)NC(=O)c1cccc([N+](=O)[O-])c1, the IC50 was 430 nM.
With O=C(NCCN1CCC2(CC1)C(=O)NCN2c1cccc(F)c1)c1ccc(Br)cc1 the IC50 was 200 nM.
Work on C[C@@H](CN1CCC2(CC1)C(=O)NCN2c1cccc(F)c1)NC(=O)c1ccc(F)c(F)c1 yielded an IC50 of 120 nM.
Compound C[C@@H](CN1CCC2(CC1)C(=O)NCN2c1cccc(F)c1)NC(=O)c1ccc(F)cc1F has an IC50 of 947 nM.
In the case of O=C(NCCN1CCC2(CC1)C(=O)NCN2c1cccc(F)c1)c1ccc(F)cc1, the IC50 is reported as 355 nM.
